In ChEMBL document CHEMBL4673309, “Synthesis and anticancer activity of new coumarin-3-carboxylic acid derivatives as potential lactatetransportinhibitors” (Bioorg Med Chem, 2021):
Activity calls are given as the source filed them. No cut-off for these calls is given here.

Experiments:
HeLa [1] = experiment: Cytotoxicity against human HeLa cells overexpressing MCT-1 assessed as reduction in cell viability measured after 72 hrs by MTT assay; assay type: functional, cell-based
HCT-116 [2] = experiment: Cytotoxicity against human HCT-116 cells overexpressing MCT-1 assessed as reduction in cell viability measured after 72 hrs by MTT assay; assay type: functional, cell-based; conditions: HCT-116, 72 h
NCM460 = experiment: Cytotoxicity against human NCM460 cells harboring low MCT1 expression incubated for 72 hrs by MTT assay; assay type: cell-based; conditions: ncm460, 72 h
HeLa [3] = experiment: Inhibition of lactate uptake in human HeLa cells at high concentration after 24 hrs by colorimetric assay; assay type: functional, cell-based
HCT-116 [4] = experiment: Reduction of lactate production in human HCT-116 cells at IC50 after 4 to 24 hrs by colorimetric assay; assay type: functional, cell-based; conditions: time 4-24 hrs
HeLa [5] = experiment: Decrease in intracellular glucose level in human HeLa cells at IC50 after 24 hrs by colorimetric assay; assay type: functional, cell-based
HeLa [6] = experiment: Antiproliferative activity against human HeLa cells assessed as reduction in cell proliferation at IC50 incubated for 6 days and measured on day 6 by MTS assay; assay type: functional, cell-based; conditions: time 6.0 day
HCT-116 [7] = experiment: Decrease in intracellular glucose level in human HCT-116 cells at IC50 after 4 hrs by colorimetric assay; assay type: functional, cell-based
HeLa [8] = experiment: Inhibition of lactate uptake in human HeLa cells at low concentration after 24 hrs by colorimetric assay; assay type: functional, cell-based
HeLa [9] = experiment: Induction of apoptosis in human HeLa cells assessed as late apoptotic cells measured after 48 hrs by annexinV-FITC/propidium iodide staining based by flow cytometry (reference value: 3.85 %); assay type: functional
HCT-116 [10] = experiment: Inhibition of lactate uptake in human HCT-116 cells at 0.01 to 100 uM after 24 hrs by colorimetric assay; assay type: functional, cell-based; conditions: dose 0.01-100 µM
HeLa [11] = experiment: Downregulation of MCT1 expression in human HeLa cells at 0.01 to 100 uM measured after 48 hrs by Western blot analysis; assay type: functional, cell-based; conditions: dose 0.01-100 µM
HeLa [12] = experiment: Reduction of lactate production in human HeLa cells at IC50 after 8 hrs by colorimetric assay; assay type: functional, cell-based
HeLa [13] = experiment: Induction of apoptosis in human HeLa cells assessed as early apoptosis measured after 48 hrs by annexinV-FITC/propidium iodide staining based by flow cytometry (reference value: 2.94 %); assay type: functional
HCT-116 [14] = experiment: Decrease in glucose consumption in human HCT-116 cells at IC50 after 4 to 24 hrs by glucose oxidase based colorimetric assay; assay type: functional, cell-based; conditions: time 4-24 hrs
HCT-116 [15] = experiment: Induction of apoptosis in human HCT-116 cells assessed as late apoptotic cells measured after 48 hrs by annexinV-FITC/propidium iodide staining based by flow cytometry (reference value: 2.78 %); assay type: functional
HCT-116 [16] = experiment: Decrease in intracellular glucose level in human HCT-116 cells at IC50 after 24 hrs by colorimetric assay; assay type: functional, cell-based
HeLa [17] = experiment: Decrease in glucose consumption in human HeLa cells at IC50 after 12 hrs by glucose oxidase based colorimetric assay; assay type: functional, cell-based
HeLa [18] = experiment: Inhibition of lactate transport in human HeLa cells assessed as increase in intracellular lactate level at IC50 measured after 8 to 24 hrs by colorimetric assay; assay type: functional, cell-based; conditions: time 8-24 hrs
HCT-116 [19] = experiment: Antiproliferative activity against human HCT-116 cells assessed as reduction in cell proliferation at IC50 incubated for 6 days and measured on day 6 by MTS assay; assay type: functional, cell-based; conditions: time 6.0 day
HCT-116 [20] = experiment: Induction of apoptosis in human HCT-116 cells assessed as early apoptosis measured after 48 hrs by annexinV-FITC/propidium iodide staining based by flow cytometry (reference value: 3.42 %); assay type: functional
HCT-116 [21] = experiment: Inhibition of lactate transport in human HCT-116 cells assessed as increase in intracellular lactate level at IC50 measured after 8 hrs by colorimetric assay; assay type: functional, cell-based
HCT-116 [22] = experiment: Downregulation of MCT1 expression in human HCT-116 cells at 0.01 to 100 uM measured after 48 hrs by Western blot analysis; assay type: functional, cell-based; conditions: dose 0.01-100 µM
HeLa [23] = experiment: Decrease in intracellular glucose level in human HeLa cells at IC50 after 4 hrs by colorimetric assay; assay type: functional, cell-based

O=C(NCCNC(=O)c1cc2ccc(OCc3ccc([N+](=O)[O-])cc3)cc2oc1=O)c1cc2ccc(OCc3ccc([N+](=O)[O-])cc3)cc2oc1=O
IC50 (HeLa [1]): 13.9 µM
IC50 (HCT-116 [2]): 68.1 µM
Activity (NCM460): Non-Toxic

O=C(NCCNC(=O)c1cc2ccc(OCc3cccc(Br)c3)cc2oc1=O)c1cc2ccc(OCc3cccc(Br)c3)cc2oc1=O
IC50 (HeLa [1]): 5.52 µM
IC50 (HCT-116 [2]): 11.6 µM
Activity (NCM460): Non-Toxic

CCOc1ccc2cc(C(=O)NN)c(=O)oc2c1
IC50 (HeLa [1]): 38.3 µM
IC50 (HCT-116 [2]): > 100 µM
Activity (NCM460): Non-Toxic

O=C(NCCO)c1cc2ccc(OCc3ccccc3)cc2oc1=O
IC50 (HeLa [1]): 14.2 µM
IC50 (HCT-116 [2]): 18.7 µM
Activity (NCM460): Non-Toxic

O=C(NO)c1cc2ccc(OCc3ccccc3)cc2oc1=O
IC50 (HeLa [1]): 31.8 µM
IC50 (HCT-116 [2]): 39.5 µM
Activity (NCM460): Non-Toxic

O=C(Nc1ccccc1)c1cc2ccc(OCc3ccccc3)cc2oc1=O
IC50 (HeLa [1]): > 100 µM
IC50 (HCT-116 [2]): > 100 µM
Activity (NCM460): Non-Toxic

CCN(CC)c1ccc2cc(C(=O)NO)c(=O)oc2c1
IC50 (HeLa [1]): 35.9 µM
IC50 (HCT-116 [2]): 37.6 µM
Activity (NCM460): Non-Toxic

CCCOc1ccc2cc(C(=O)NN)c(=O)oc2c1
IC50 (HeLa [1]): > 100 µM
IC50 (HCT-116 [2]): 69.8 µM
Activity (NCM460): Non-Toxic

O=C(NCCO)c1cc2ccc(OCc3cccc(Br)c3)cc2oc1=O
IC50 (HeLa [1]): 17.6 µM
IC50 (HCT-116 [2]): 30.8 µM
Activity (NCM460): Non-Toxic

CCN(CC)c1ccc2cc(C(=O)NN)c(=O)oc2c1
inhibition (HeLa [3]): inactive
inhibition (HCT-116 [4]): Active
inhibition (HeLa [5]): Active
Activity (HeLa [6]): Active
inhibition (HCT-116 [7]): Active
inhibition (HeLa [8]): Active
IC50 (HeLa [1]): 5.48 µM
Activity (HeLa [9]): 6.47%
inhibition (HCT-116 [10]): Active
inhibition (HeLa [11]): Active
IC50 (HCT-116 [2]): 3.36 µM
inhibition (HeLa [12]): Active
Activity (HeLa [13]): 5.28%
inhibition (HCT-116 [14]): Active
Activity (HCT-116 [15]): 5.94%
inhibition (HCT-116 [16]): inactive
inhibition (HeLa [17]): Active
inhibition (HeLa [18]): Active
Activity (NCM460): Non-Toxic
Activity (HCT-116 [19]): Active
Activity (HCT-116 [20]): 2.52%
inhibition (HCT-116 [21]): Active
inhibition (HCT-116 [22]): Active

CCCOc1ccc2cc(C(=O)NCCO)c(=O)oc2c1
IC50 (HeLa [1]): 22.6 µM
IC50 (HCT-116 [2]): > 100 µM
Activity (NCM460): Non-Toxic

O=C(NCCO)c1cc2ccc(OCc3ccc([N+](=O)[O-])cc3)cc2oc1=O
IC50 (HeLa [1]): 6.89 µM
IC50 (HCT-116 [2]): 33.4 µM
Activity (NCM460): Non-Toxic

CCN(CC)c1ccc2cc(C(=O)NCCO)c(=O)oc2c1
IC50 (HeLa [1]): > 100 µM
IC50 (HCT-116 [2]): > 100 µM
Activity (NCM460): Non-Toxic

CCN(CC)c1ccc2cc(C(=O)NC(C)C)c(=O)oc2c1
IC50 (HeLa [1]): 73 µM
IC50 (HCT-116 [2]): > 100 µM
Activity (NCM460): Non-Toxic

NNC(=O)c1cc2ccc(OCc3ccc([N+](=O)[O-])cc3)cc2oc1=O
IC50 (HeLa [1]): > 100 µM
IC50 (HCT-116 [2]): > 100 µM
Activity (NCM460): Non-Toxic

O=c1c(O)c(-c2ccc(O)c(O)c2)oc2cc(O)cc(O)c12 [QUERCETIN]
inhibition (HCT-116 [4]): Active
inhibition (HeLa [23]): Active
IC50 (HeLa [1]): 22.5 µM
Activity (HeLa [9]): 14.2%
IC50 (HCT-116 [2]): 43.9 µM
inhibition (HeLa [12]): Active
Activity (HeLa [13]): 4.92%
inhibition (HCT-116 [14]): Active
Activity (HCT-116 [15]): 10.3%
inhibition (HeLa [18]): Active
Activity (NCM460): Non-Toxic
Activity (HCT-116 [19]): Active
Activity (HCT-116 [20]): 5.35%

CCOc1ccc2cc(C(=O)NCCO)c(=O)oc2c1
IC50 (HeLa [1]): > 100 µM
IC50 (HCT-116 [2]): > 100 µM
Activity (NCM460): Non-Toxic

CCN(CC)c1ccc2cc(C(=O)NC3CC3)c(=O)oc2c1
IC50 (HeLa [1]): > 100 µM
IC50 (HCT-116 [2]): > 100 µM
Activity (NCM460): Non-Toxic

NNC(=O)c1cc2ccc(OCc3cccc(Br)c3)cc2oc1=O
IC50 (HeLa [1]): > 100 µM
IC50 (HCT-116 [2]): > 100 µM
Activity (NCM460): Non-Toxic

NNC(=O)c1cc2ccc(OCc3ccccc3)cc2oc1=O
IC50 (HeLa [1]): > 100 µM
IC50 (HCT-116 [2]): > 100 µM
Activity (NCM460): Non-Toxic

N#C/C(=C\c1ccc(O)cc1)C(=O)O [alpha-CYANO-4-HYDROXYCINNAMIC ACID]
inhibition (HCT-116 [4]): Active
inhibition (HeLa [23]): Active
Activity (HeLa [6]): Active
IC50 (HeLa [1]): 2140 µM
Activity (HeLa [9]): 13.6%
IC50 (HCT-116 [2]): 1650 µM
inhibition (HeLa [12]): Active
Activity (HeLa [13]): 8.8%
inhibition (HCT-116 [14]): Active
Activity (HCT-116 [15]): 9.36%
inhibition (HeLa [18]): Active
Activity (NCM460): Non-Toxic
Activity (HCT-116 [20]): 2.07%

CCN(CC)c1ccc2cc(C(=O)N/N=C(/C)c3cccnc3)c(=O)oc2c1
IC50 (HeLa [1]): 70 µM
IC50 (HCT-116 [2]): > 100 µM
Activity (NCM460): Non-Toxic

O=C(NCCNC(=O)c1cc2ccc(OCc3ccccc3)cc2oc1=O)c1cc2ccc(OCc3ccccc3)cc2oc1=O
IC50 (HeLa [1]): 12.1 µM
IC50 (HCT-116 [2]): 15.9 µM
Activity (NCM460): Non-Toxic

CCN(CC)c1ccc2cc(C(=O)N/N=C(/C)c3cccs3)c(=O)oc2c1
IC50 (HeLa [1]): > 100 µM
IC50 (HCT-116 [2]): > 100 µM
Activity (NCM460): Non-Toxic
